Laboratory results from US20240415819A1, “MACROCYCLIC COMPOUNDS AS PROTEASOME SUBUNIT BETA TYPE-5 INHIBITORS” (Lead Discovery Center GmbH, priority 2021, published 2024).

Legend:
[1] = biological target: T1, β5 subunit of the human immunoproteasome (IPS) (Homo sapiens, UniProt P28062); assay: β5 inhibition assay, human immunoproteasome (Suc-LLVY-AMC); assay type: biochemical; conditions: IC50 class, Suc-LLVY-AMC substrate
T1 construct: purchased Boston Biochem E-370
Summary of the method: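 β5 activity is read as liberated AMC fluorescence (355/460 nm) after 4 h dark reaction at RT with 22.6 μM Suc-LLVY-AMC, stopped by 1 μM bortezomib. Beforehand, 1 nM human IPS and compound sat 10 min at RT in HEPES pH 7.5 buffer containing NaCl, 0.02% SDS and DTT.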

[2] = system: A549 (human lung carcinoma cell line); assay: Glo assay of A549 cells (Table 3; ProteasomeGlo plating scheme); assay type: cell-based; conditions: Homo sapiens; A549 cells; read-out: PGLo A549
Summary of the method: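 After acoustic compound transfer, plates incubate 105 min (37° C., 5% CO2). Proteasome-Glo reagent containing Suc-LLVY-Glo substrate is added, plates are shaken, then luminescence is measured after 10-15 min to derive IC50 [nM]. Staurosporine and DMSO serve as controls.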

[3] = system: RPMI 8226 (B lymphocyte cell line, multiple myeloma); assay: 48 hr CTG viability assay, RPMI 8226; assay type: cell-based; conditions: Homo sapiens, RPMI-8226; 48 hr CTG; read-out: RPMI-8226 IC50
Summary of the method: (§1)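 Growth inhibition by compound over 48 h; IC50 (nM) derived from duplicate CellTiter-Glo luminescence readings across 0.0015–10 uM.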

[4] = system: MM1 S (B lymphoblast cell line); assay: 48 hr CTG viability assay, MM1S; assay type: cell-based; conditions: Homo sapiens, 48 hr CTG, read-out: MM1S IC50
Summary of the method: as §1

[5] = biological target: T2, β5 subunit of the human constitutive proteasome (CPS) (Homo sapiens, UniProt P28074); assay: β5 inhibition assay, human constitutive proteasome (Suc-LLVY-AMC); assay type: biochemical; conditions: IC50 class, Suc-LLVY-AMC substrate
T2 construct: purchased Boston Biochem E-360
Procedure: The enzymatic activity of the β5 subunit of the human constitutive proteasome (CPS) is analyzed. In another assay, which differs from the assay of the human constitutive proteasome only in using the human immunoproteasome (IPS) the enzymatic activity of the β5 subunit of the human immunoproteasome (IPS) is analyzed. […] Inhibition is indicated as IC50 [nM] (“-”=not measured).

[6] = system: Hs 746T (human gastric carcinoma cell line); assay: 48 hr CTG viability assay, Hs 746T; assay type: cell-based; conditions: Hs746T, 48 hr CTG, read-out: Hs 746T IC50
Summary of the method: as §1

Structure (SMILES)	IC50 [1] [nM]	IC50 [2] [nM]	IC50 [3] [nM]	IC50 [4] [nM]	IC50 [5] [nM]	IC50 [6] [nM]
Cc1ccc2cc1CNC(=O)[C@H](CCc1ccccc1)NC(=O)[C@@H](NC(=O)N1CC(O)C1)CC(=O)N1CCCC(CCO2)C1 (stereo partly drawn) [Compound 691, 3-hydroxy-N-((9S,12S)-5^4-methyl-8,11,14-trioxo-9-phenethyl-4-oxa-7,10-diaza-1(3,1)-piperidina-5(1,3)-benzenacyclotetradecaphane-12-yl)azetidine-1-carboxamide]	< 100	< 100	< 100	< 100	< 100	< 100
COc1cccc(OCCC(=O)N[C@H]2CC(=O)N3CCCC(CCOc4ccc(C)c(c4)CNC(=O)[C@H](CCc4ccccc4)NC2=O)C3)c1 (stereo partly drawn) [Compound 587, 3-(3-methoxyphenoxy)-N-((9S,12S)-5^4-methyl-8,11,14-trioxo-9-phenethyl-4-oxa-7,10-diaza-1(3,1)-piperidina-5(1,3)-benzenacyclotetradecaphane-12-yl)propanamid]	< 100	< 100	< 100	< 100	< 100	< 100
Cc1ccc2cc1CNC(=O)[C@H](CCc1ccccc1)NC(=O)[C@@H](NC(=O)C1CCC3(CCOCC3)CC1)CC(=O)N1CCCC(CCO2)C1 (stereo partly drawn) [Compound 584, N-((9S,12S)-5^4-methyl-8,11,14-trioxo-9-phenethyl-4-oxa-7,10-diaza-1(3,1)-piperidina-5(1,3)-benzenacyclotetradecaphane-12-yl)-3-oxaspiro[5.5]undecane-9-carboxamide]	< 100	< 100	< 100	< 100	< 100	< 100
Cc1ccc2cc1CNC(=O)[C@H](CCc1ccccc1)NC(=O)[C@@H](NC(=O)CCN1CCC3(CCOC3)C1)CC(=O)N1CCCC(CCO2)C1 (stereo partly drawn) [Compound 640, N-((9S,12S)-5^4-methyl-8,11,14-trioxo-9-phenethyl-4-oxa-7,10-diaza-1(3,1)-piperidina-5(1,3)-benzenacyclotetradecaphane-12-yl)-3-(2-oxa-7-azaspiro[4.4]nonan-7-yl)propanamide]	< 100	< 100	< 100	< 100	< 100	< 100
Cc1ccc2cc1CNC(=O)[C@H](CCc1ccc(N)cc1)NC(=O)[C@@H](NC(=O)Cc1cn3ccsc3n1)CC(=O)N1CCCC(CCO2)C1 (stereo partly drawn) [Compound 708, N-((9S,12S)-9-(4-aminophenethyl)-5^4-methyl-8,11,14-trioxo-4-oxa-7,10-diaza-1(3,1)-piperidina-5(1,3)-benzenacyclotetradecaphane-12-yl)-2-(imidazo[2,1-b]thiazol-6-yl)acetamide]	< 100	< 100	< 100	< 100	< 100	< 100
Cc1ccc2cc1CNC(=O)[C@H](CCc1ccccc1)NC(=O)[C@@H](NC(=O)CCNCC1CC1)CC(=O)N1CCCC(CCO2)C1 (stereo partly drawn) [Compound 694, 3-((cyclopropylmethyl)amino)-N-((9S,12S)-5^4-methyl-8,11,14-trioxo-9-phenethyl-4-oxa-7,10-diaza-1(3,1)-piperidina-5(1,3)-benzenacyclotetradecaphane-12-yl)propanamide]	< 100	< 100	< 100	< 100	< 100	< 100
Cc1ccc2cc1CNC(=O)[C@H](CCc1ccccc1)NC(=O)[C@@H](NC(=O)CCOCC1CC1)CC(=O)N1CCCC(CCO2)C1 (stereo partly drawn) [Compound 594, 3-(cyclopropylmethoxy)-N-((9S,12S)-5^4-methyl-8,11,14-trioxo-9-phenethyl-4-oxa-7,10-diaza-1(3,1)-piperidina-5(1,3)-benzenacyclotetradecaphane-12-yl)propanamide]	< 100	< 100	< 100	< 100	< 100	< 100
Cc1ccc2cc1CNC(=O)[C@H](CCc1ccccc1)NC(=O)[C@@H](NC(=O)CCOCc1ccccc1)CC(=O)N1CCCC(CCO2)C1 (stereo partly drawn) [Compound 589, 3-(benzyloxy)-N-((9S,12S)-5^4-methyl-8,11,14-trioxo-9-phenethyl-4-oxa-7,10-diaza-1(3,1)-piperidina-5(1,3)-benzenacyclotetradecaphane-12-yl)propanamide]	< 100	< 100	< 100	< 100	< 100	< 100
Cc1ccc2cc1CNC(=O)[C@H](CCc1ccccc1)NC(=O)[C@@H](NC(=O)C(C)(C)CO)CCCC(=O)NCCCCO2 [Compound 722, 3-hydroxy-2,2-dimethyl-N-((12S,15S)-1^4-methyl-8,13,16-trioxo-15-phenethyl-2-oxa-7,14,17-triaza-1(1,3)-benzenacyclooctadecaphane-12-yl)propanamide]	< 100	100 to 500	100 to 500	100 to 500	< 100	500 to 1000

Second part, the molecule after the results:

IC50 [1] [nM]	IC50 [2] [nM]	IC50 [3] [nM]	IC50 [4] [nM]	IC50 [5] [nM]	IC50 [6] [nM]	Structure (SMILES)
< 100	< 100	< 100	< 100	< 100	< 100	Cc1ccc2cc1CNC(=O)[C@H](CCc1ccccc1)NC(=O)[C@@H](NC(=O)CCNC(=O)c1ccc(N3CCOCC3)cc1)CC(=O)N1CCCC(CCO2)C1 (stereo partly drawn) [Compound 604, N-(3-(((9S,12S)-5^4-methyl-8,11,14-trioxo-9-phenethyl-4-oxa-7,10-diaza-1(3,1)-piperidina-5(1,3)-benzenacyclotetradecaphane-12-yl)amino)-3-oxopropyl)-4-morpholinobenzamide]
< 100	< 100	< 100	< 100	< 100	100 to 500	Cc1ccc2cc1CNC(=O)[C@H](CCN1C[C@@H]3C[C@H]1CO3)NC(=O)[C@@H](NC(=O)Cc1cn3ccsc3n1)CC(=O)N1CCCC(CCO2)C1 [Compound 739, N-((9S,12S)-9-(2-((1S,4S)-2-oxa-5-azabicyclo[2.2.1]heptan-5-yl)ethyl)-5^4-methyl-8,11,14-trioxo-4-oxa-7,10-diaza-1(3,1)-piperidina-5(1,3)-benzenacyclotetradecaphane-12-yl)-2-(imidazo[2,1-b]thiazol-6-yl)acetamide]
< 100	< 100	< 100	< 100	< 100	< 100	Cc1ccc2cc1CNC(=O)[C@H](CCc1ccccc1)NC(=O)[C@@H](NC(=O)CCN1CCC3(CCC3)CC1)CC(=O)N1CCCC(CCO2)C1 (stereo partly drawn) [Compound 638, N-((9S,12S)-5^4-methyl-8,11,14-trioxo-9-phenethyl-4-oxa-7,10-diaza-1(3,1)-piperidina-5(1,3)-benzenacyclotetradecaphane-12-yl)-3-(7-azaspiro[3.5]nonan-7-yl)propanamide]
< 100	< 100	100 to 500	100 to 500	< 100	100 to 500	Cc1ccc2cc1CNC(=O)[C@H](CCc1ccncc1)NC(=O)[C@@H](NC(=O)C1(F)CCNCC1)CC(=O)N1CCCC(CCO2)C1 (stereo partly drawn) [Compound 729, 4-fluoro-N-((12S)-5^4-methyl-8,11,14-trioxo-9-(2-(pyridin-4-yl)ethyl)-4-oxa-7,10-diaza-1(3,1)-piperidina-5(1,3)-benzenacyclotetradecaphane-12-yl)piperidine-4-carboxamide]
< 100	< 100	< 100	< 100	< 100	< 100	Cc1ccc2cc1CNC(=O)[C@H](CCc1ccccc1)NC(=O)[C@@H](NC(=O)CCNC(=O)C1CC3(CCC3)C1)CC(=O)N1CCCC(CCO2)C1 (stereo partly drawn) [Compound 616, N-(3-(((9S,12S)-5^4-methyl-8,11,14-trioxo-9-phenethyl-4-oxa-7,10-diaza-1(3,1)-piperidina-5(1,3)-benzenacyclotetradecaphane-12-yl)amino)-3-oxopropyl)spiro[3.3]heptane-2-carboxamide]
< 100	< 100	< 100	< 100	< 100	100 to 500	Cc1ccc2cc1CNC(=O)[C@H](CCc1ccccc1)NC(=O)[C@@H](NC(=O)C1(C)CNC1)CC(=O)N1CCCC(CCO2)C1 (stereo partly drawn) [Compound 715, 3-methyl-N-((9S,12S)-5^4-methyl-8,11,14-trioxo-9-phenethyl-4-oxa-7,10-diaza-1(3,1)-piperidina-5(1,3)-benzenacyclotetradecaphane-12-yl)azetidine-3-carboxamide]
